Data taken from ChEMBL document CHEMBL1141220, “A new class of HIV-1 protease inhibitors containing a tertiary alcohol in the transition-state mimicking scaffold” (J Med Chem, 2005).

Assays:
[1] = molecular target: Human immunodeficiency virus type 1 protease (Human immunodeficiency virus 1, UniProt Q72874); experiment: Inhibitory activity against HIV1 protease expressed in Escherichia coli in a fluorometric assay
MT4 [2] = experiment: Antiviral activity against HIV1 infected MT4 cells by colorimetric XTT assay; format: functional, cell-based; conditions: Homo sapiens
MT4 [3] = experiment: Antiviral activity against mutant HIV1 (V32I, M46I, V82A) infected MT4 cells by colorimetric XTT assay; format: functional, cell-based
MT4 [4] = experiment: Antiviral activity against mutant HIV1 (V32I, M46I, A71V, V82A) infected MT4 cells by colorimetric XTT assay; format: functional, cell-based
[5] = Caco-2 cell membrane permeability; format: ADME, cell-based; conditions: human
[6] = Intrinsic clearance (CL) in human liver microsomes at 2 uM; format: ADME, Microsome

Row | SMILES | Ki [1] [nM] | EC50 (MT4 [2]) [nM] | EC50 (MT4 [3]) [nM] | EC50 (MT4 [4]) [nM] | Papp [5] [×10⁻⁶ cm/s] | microsomal CLint at 2 µM [6] [µL/min/mg]
1 | CC(C)(C)[C@H](NC(=O)OCc1ccccc1)C(=O)NN(Cc1ccccc1)C[C@@](O)(Cc1ccccc1)C(=O)N[C@H]1c2ccccc2C[C@H]1O | 18 | > 10000 | – | – | – | –
2 | CC(C)(C)[C@H](NS(C)(=O)=O)C(=O)NN(Cc1ccccc1)C[C@@](O)(Cc1ccccc1)C(=O)N[C@H]1c2ccccc2C[C@H]1O | 63 | > 10000 | – | – | – | –
3 | CC(C)(C)[C@H](NC(=O)NCc1ccccc1)C(=O)NN(Cc1ccccc1)C[C@@](O)(Cc1ccccc1)C(=O)N[C@H]1c2ccccc2C[C@H]1O | 22 | > 10000 | – | – | – | –
4 | COC(=O)N[C@H](C(=O)NN(Cc1ccc(Br)cc1)C[C@@](O)(Cc1ccccc1)C(=O)N[C@H]1c2ccccc2C[C@H]1O)C(C)(C)C | – | 1100 | 900 | 800 | 42 | –
5 | CC(C)[C@H](NC(=O)OCc1ccccc1)C(=O)NN(Cc1ccccc1)C[C@@](O)(Cc1ccccc1)C(=O)N[C@H]1c2ccccc2C[C@H]1O | 23 | > 10000 | – | – | – | –
6 | CC(C)[C@H](NC(=O)OCc1ccccc1)C(=O)NN(Cc1ccc(Br)cc1)C[C@@](O)(Cc1ccccc1)C(=O)N[C@H]1c2ccccc2C[C@H]1O | 17 | > 10000 | – | – | – | –
7 | COC(=O)N[C@H](C(=O)NN(Cc1ccccc1)C[C@](O)(Cc1ccccc1)C(=O)N[C@H]1c2ccccc2C[C@H]1O)C(C)(C)C | – | > 10000 | – | – | – | –
8 | COC(=O)N[C@H](C(=O)NN(Cc1ccccc1)C[C@@](O)(Cc1ccccc1)C(=O)N[C@H]1c2ccccc2C[C@H]1O)C(C)C | 9 | 4800 | – | – | – | –
9 | CC(C)[C@H](NC(=O)OCc1ccccc1)C(=O)NN(Cc1ccccc1)C[C@](O)(Cc1ccccc1)C(=O)N[C@H]1c2ccccc2C[C@H]1O | 870 | > 10000 | – | – | – | –
10 | COC(=O)N[C@H](C(=O)NN(Cc1ccccc1)C[C@@](O)(Cc1ccccc1)C(=O)N[C@H]1c2ccccc2C[C@H]1O)C(C)(C)C | 6 | 1900 | 2000 | 1600 | 35 | 527
